The values that follow come from ChEMBL document CHEMBL5113555, “Potent PROTACs Targeting EGFR Mutants in Drug Discovery” (ACS Med Chem Lett, 2022).

Test [1] deals with Protein cereblon/Epidermal growth factor receptor (Homo sapiens), P00533+Q96SW2 [UNDEFINED MUTATION]. Nature of the test: Protac activity at E3 ubiquitin ligase/EGFR Del19/[…]/C797S mutant assessed as E3 ubiquitin ligase mediated EGFR degradation in human NCI-H1975 cells expressing Del19/[…]/C797S mutant in clone 28 after 16 hrs by HTRF assay relative to control. The test is classed as cell-based. Background: In TR-FRET formats the signal depends on donor and acceptor labels being close together.
Chain of Protein cereblon/Epidermal growth factor receptor (Homo sapiens), P00533+Q96SW2 [UNDEFINED MUTATION] (P00533 whole entry, looked up, stated change not applied): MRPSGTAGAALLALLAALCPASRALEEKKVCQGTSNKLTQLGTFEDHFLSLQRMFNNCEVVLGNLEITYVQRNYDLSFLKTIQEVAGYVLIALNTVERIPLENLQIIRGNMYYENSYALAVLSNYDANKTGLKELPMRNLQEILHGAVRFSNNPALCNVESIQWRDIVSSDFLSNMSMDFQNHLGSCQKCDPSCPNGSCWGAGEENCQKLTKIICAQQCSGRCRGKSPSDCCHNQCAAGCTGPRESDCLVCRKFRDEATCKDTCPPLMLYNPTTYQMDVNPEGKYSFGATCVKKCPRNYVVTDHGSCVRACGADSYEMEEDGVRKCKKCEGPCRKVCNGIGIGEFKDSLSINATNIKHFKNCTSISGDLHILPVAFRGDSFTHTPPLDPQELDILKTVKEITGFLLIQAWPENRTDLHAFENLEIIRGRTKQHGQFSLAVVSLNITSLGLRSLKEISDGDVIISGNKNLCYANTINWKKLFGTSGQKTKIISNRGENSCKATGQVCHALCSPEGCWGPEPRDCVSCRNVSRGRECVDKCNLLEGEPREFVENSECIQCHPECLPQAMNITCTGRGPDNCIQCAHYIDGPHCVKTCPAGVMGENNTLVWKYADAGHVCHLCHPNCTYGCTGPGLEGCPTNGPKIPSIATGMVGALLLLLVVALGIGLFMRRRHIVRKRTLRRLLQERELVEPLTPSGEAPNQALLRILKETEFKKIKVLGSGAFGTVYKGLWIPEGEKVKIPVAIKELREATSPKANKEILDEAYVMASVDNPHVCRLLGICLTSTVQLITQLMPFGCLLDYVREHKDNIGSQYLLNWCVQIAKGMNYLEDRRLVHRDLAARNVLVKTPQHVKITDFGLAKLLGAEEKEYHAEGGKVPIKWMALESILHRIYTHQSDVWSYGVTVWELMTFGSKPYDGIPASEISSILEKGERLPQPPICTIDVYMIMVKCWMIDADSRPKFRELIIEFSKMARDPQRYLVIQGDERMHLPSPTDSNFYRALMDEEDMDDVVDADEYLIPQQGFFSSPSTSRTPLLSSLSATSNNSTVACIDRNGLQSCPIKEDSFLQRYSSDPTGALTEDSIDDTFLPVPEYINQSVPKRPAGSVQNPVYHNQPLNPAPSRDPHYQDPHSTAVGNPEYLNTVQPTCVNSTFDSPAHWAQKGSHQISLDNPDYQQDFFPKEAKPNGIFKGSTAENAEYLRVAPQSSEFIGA
Chain of Protein cereblon/Epidermal growth factor receptor (Homo sapiens), P00533+Q96SW2 [UNDEFINED MUTATION] (Q96SW2 whole entry, looked up, stated change not applied): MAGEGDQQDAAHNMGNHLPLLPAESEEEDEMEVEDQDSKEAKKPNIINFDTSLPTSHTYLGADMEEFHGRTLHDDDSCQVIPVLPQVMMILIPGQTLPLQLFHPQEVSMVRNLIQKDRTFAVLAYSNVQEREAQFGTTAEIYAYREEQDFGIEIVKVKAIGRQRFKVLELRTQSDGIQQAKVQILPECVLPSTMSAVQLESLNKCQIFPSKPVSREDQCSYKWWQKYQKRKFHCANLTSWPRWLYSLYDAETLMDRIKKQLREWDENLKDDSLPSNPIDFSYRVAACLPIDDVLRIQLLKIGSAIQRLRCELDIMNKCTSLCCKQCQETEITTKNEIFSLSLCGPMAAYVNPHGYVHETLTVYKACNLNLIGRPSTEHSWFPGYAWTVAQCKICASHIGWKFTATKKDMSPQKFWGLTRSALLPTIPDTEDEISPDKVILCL

The target of test [2] is Protein cereblon/Epidermal growth factor receptor (Homo sapiens, UniProt P00533+Q96SW2). Description: Protac activity at E3 ubiquitin ligase/EGFR Del19/[…]/C797S mutant assessed as E3 ubiquitin ligase mediated EGFR degradation in human NCI-H1975 cells expressing Del19/[…]/C797S mutant in clone 28 after 16 hrs by HTRF assay. The test is classed as cell-based.
Chain of Protein cereblon/Epidermal growth factor receptor (P00533 whole entry, looked up, stated change not applied): as the sequence (P00533 whole entry, looked up, stated change not applied) above
Chain of Protein cereblon/Epidermal growth factor receptor (Q96SW2 whole entry, looked up, stated change not applied): as the sequence (Q96SW2 whole entry, looked up, stated change not applied) above

Usually DC50 stands for the concentration giving 50% degradation. Turning to `CCc1cc(Nc2ncc(Br)c(Nc3cnc4ccccc4c3P(C)(C)=O)n2)c(OC)cc1N1CCC(N2CCN(CCc3ccc4c(oc(=O)n4C4CCC(=O)NC4=O)c3F)CC2)CC1` (centres undefined), the Emax in test [1] came to 81%. In addition, in test [2], the DC50 amounted to 900 nM.

For the compound `CCc1cc(Nc2ncc(Br)c(Nc3cnc4ccccc4c3P(C)(C)=O)n2)c(OC)cc1N1CCC(N2CCN(CCc3ccc(F)c4c3n(C)c(=O)n4C3CCC(=O)NC3=O)CC2)CC1` (centres undefined), the Emax in test [1] turned out to be 86%. Further, in test [2], the DC50 came to 1000 nM.

Turning to `CCc1cc(Nc2ncc(Br)c(Nc3cnc4ccccc4c3P(C)(C)=O)n2)c(OC)cc1N1CCC(N2CCN(CCc3cccc4c3n(CC)c(=O)n4C3CCC(=O)NC3=O)CC2)CC1` (centres undefined), in test [1], the Emax came out at 83%. For the same compound, in test [2], the DC50 amounted to 900 nM.

In the case of `CCOc1cc(N2CCC(N3CCN(CCc4cccc5c4n(C)c(=O)n5C4CCC(=O)NC4=O)CC3)CC2)c(CC)cc1Nc1ncc(Br)c(Nc2cnc3ccccc3c2P(C)(C)=O)n1` (centres undefined), the Emax in test [1] was determined as 84%. Besides, in test [2], the DC50 turned out to be 4400 nM.

On to `CCOc1cc(N2CCC(N3CCN(CCc4cccc5c4n(C)c(=O)n5C4CCC(=O)NC4=O)CC3)CC2)c(CC)cc1Nc1ncc(Br)c(Nc2cnc3cc(F)ccc3c2P(C)(C)=O)n1` (centres undefined), for which the Emax in test [1] is 84%. In addition, in test [2], the DC50 turned out to be 400 nM.

Regarding `CCOc1cc(N2CCC(N3CCN(CCc4cc(F)c(F)c5c4oc(=O)n5C4CCC(=O)NC4=O)CC3)CC2)c(CC)cc1Nc1ncc(Br)c(Nc2cnc3ccccc3c2P(C)(C)=O)n1` (centres undefined), the Emax in test [1] is 81%. Also, the DC50 in test [2] came to 600 nM.

On to `CCc1cc(Nc2ncc(Br)c(Nc3cnc4ccccc4c3P(C)(C)=O)n2)c(OC)cc1N1CCC(N2CCN(CCc3cccc4c3n(C3CC3)c(=O)n4C3CCC(=O)NC3=O)CC2)CC1` (centres undefined), for which the Emax in test [1] stood at 85%. The DC50 in test [2] came out at 700 nM.
